Data as given in patent US20100099871A1, “ANTI-PSYCHOTIC COMPOUNDS AND PHARMACEUTICAL COMPOSITIONS THEREOF” (priority 2008, published 2010).

Experiments:
5-HT2a = 5-HT2a (Homo sapiens, UniProt P28223); assay: In vitro receptor binding, 5-HT2a; settings: read-out: In vitro testing data (receptor binding affinity), 5-HT2a
Protocol: (§1) Three of the compounds predicted to display antipsychotic activity have been synthesized and characterized. Once compounds meeting selection criteria of the spectral models were identified, confirmatory in vitro screening and cross-screening were conducted. For example, receptor binding studies were conducted for 5-HT1A, 5-HT2A, 5-HT2C, 5-HT6, 5-HT7, α1A, α1B, α1D, α2A, α2B, α2C, D2, H1, M1, M2, M3, M4, and M5 to further determine a broad pharmacological profile for compounds meeting spectral modeling selection criteria. Synthesis and characterization of these compounds is provided as an Experimental Example. […] For D2 and 5-HT2A receptors, experimental results were within 11% of predicted values. […] In some embodiments, the compounds are selective for 5-HT2A over D2. […] As such the compounds are advantageous over clozapine and may be beneficial for treating psychotic conditions, such as schizophrenia.

Alpha 1A = Alpha 1A (Homo sapiens, UniProt P35348); assay: In vitro receptor binding, Alpha 1A; settings: given in words, no number
Protocol: as §1

Alpha 1D = Alpha 1D (Homo sapiens, UniProt P25100); assay: In vitro receptor binding, Alpha 1D; settings: given in words, no number
Protocol: as §1

Alpha 2A = Alpha 2A (Homo sapiens, UniProt P08913); assay: In vitro receptor binding, Alpha 2A; settings: given in words, no number
Protocol: as §1

D2 = D2 (Homo sapiens, UniProt P14416); assay: In vitro receptor binding, D2; settings: read-out: In vitro testing data (receptor binding affinity), D2
Protocol: as §1

M3 = M3 (Homo sapiens, UniProt P20309); assay: In vitro receptor binding, M3; settings: read-out: In vitro testing data (receptor binding affinity), M3
Protocol: as §1

M5 = M5 (Homo sapiens, UniProt P08912); assay: In vitro receptor binding, M5; settings: read-out: In vitro testing data (receptor binding affinity), M5
Protocol: as §1

5-HT1a = 5-HT1a (Homo sapiens, UniProt P08908); assay: In vitro receptor binding, 5-HT1a; settings: given in words, no number
Protocol: as §1

M4 = M4 (Homo sapiens, UniProt P08173); assay: In vitro receptor binding, M4; settings: read-out: In vitro testing data (receptor binding affinity), M4
Protocol: as §1

[1] = tested on: pre-frontal cortex acetylcholine release; assay: In vivo microdialysis, pre-frontal cortex acetylcholine release; parameters: species or system male Sprague-Dawley rats; settings: rat microdialysis (FIG. 13); LMD-00100t at the maximum dose tested, data not shown
Protocol: (§2) In vivo microdialysis studies were conducted according to established methods. In summary, two cannulae with microdialysis probes were implanted via stereotaxic surgery (one each into two separate brain regions), into the medial prefrontal cortex and nucleus accumbens of male Sprague-Dawley rats weighing from 250 g to 300 g. After recovery from surgery, a solution was circulated through the probes on test days collecting extracellular synaptic fluid at 30-minute intervals and delivering it to an HPLC for analysis of extracellular dopamine concentrations in real time following antipsychotic compound dosing. Simultaneously, an aliquot was taken and frozen for later mass spectrometric determination of acetylcholine concentrations.

5-HT7 = 5-HT7 (Homo sapiens, UniProt P34969); assay: In vitro receptor binding, 5-HT7; settings: read-out: In vitro testing data (receptor binding affinity), 5-HT7
Protocol: as §1

Alpha 2C = Alpha 2C (Homo sapiens, UniProt P18825); assay: In vitro receptor binding, Alpha 2C; settings: given in words, no number
Protocol: as §1

Alpha 1B = Alpha 1B (Homo sapiens, UniProt P35368); assay: In vitro receptor binding, Alpha 1B; settings: given in words, no number
Protocol: as §1

M1 = M1 (Homo sapiens, UniProt P11229); assay: In vitro receptor binding, M1; settings: read-out: In vitro testing data (receptor binding affinity), M1
Protocol: as §1

H1 = H1 (Homo sapiens, UniProt P35367); assay: In vitro receptor binding, H1; settings: read-out: In vitro testing data (receptor binding affinity), H1
Protocol: as §1

M2 = M2 (Homo sapiens, UniProt P08172); assay: In vitro receptor binding, M2; settings: read-out: In vitro testing data (receptor binding affinity), M2
Protocol: as §1

[2] = tested on: pre-frontal cortex dopamine release; assay: In vivo microdialysis, pre-frontal cortex dopamine release; parameters: species or system male Sprague-Dawley rats; settings: rat microdialysis
Protocol: as §2

5-HT6 = 5-HT6 (Homo sapiens, UniProt P50406); assay: In vitro receptor binding, 5-HT6; settings: read-out: In vitro testing data (receptor binding affinity), 5-HT6
Protocol: as §1

Alpha 2B = Alpha 2B (Homo sapiens, UniProt P18089); assay: In vitro receptor binding, Alpha 2B; settings: given in words, no number
Protocol: as §1

[3] = tested on: nucleus accumbens dopamine release; assay: In vivo microdialysis, nucleus accumbens dopamine release; parameters: species or system male Sprague-Dawley rats; settings: rat microdialysis; ceiling effect, increasing dose gave no additional release (FIG. 12)
Protocol: as §2

5-HT2c = 5-HT2c (Homo sapiens, UniProt P28335); assay: In vitro receptor binding, 5-HT2c; settings: read-out: In vitro testing data (receptor binding affinity), 5-HT2c
Protocol: as §1

Sequence of 5-HT7 (P34969 whole entry, species assumed): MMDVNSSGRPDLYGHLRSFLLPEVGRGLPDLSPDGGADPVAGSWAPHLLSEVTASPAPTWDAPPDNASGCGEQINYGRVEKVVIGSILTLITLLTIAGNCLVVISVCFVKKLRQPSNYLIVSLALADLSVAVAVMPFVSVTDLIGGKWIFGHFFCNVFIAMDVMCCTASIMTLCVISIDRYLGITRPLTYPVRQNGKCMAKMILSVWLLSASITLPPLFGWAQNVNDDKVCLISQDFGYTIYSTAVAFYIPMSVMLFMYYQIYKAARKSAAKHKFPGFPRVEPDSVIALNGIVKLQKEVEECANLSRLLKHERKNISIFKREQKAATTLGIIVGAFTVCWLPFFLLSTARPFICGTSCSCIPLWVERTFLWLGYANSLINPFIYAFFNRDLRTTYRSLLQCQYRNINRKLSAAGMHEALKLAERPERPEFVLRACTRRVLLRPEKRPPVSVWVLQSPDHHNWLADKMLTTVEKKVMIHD
Sequence of Alpha 1B (P35368 whole entry): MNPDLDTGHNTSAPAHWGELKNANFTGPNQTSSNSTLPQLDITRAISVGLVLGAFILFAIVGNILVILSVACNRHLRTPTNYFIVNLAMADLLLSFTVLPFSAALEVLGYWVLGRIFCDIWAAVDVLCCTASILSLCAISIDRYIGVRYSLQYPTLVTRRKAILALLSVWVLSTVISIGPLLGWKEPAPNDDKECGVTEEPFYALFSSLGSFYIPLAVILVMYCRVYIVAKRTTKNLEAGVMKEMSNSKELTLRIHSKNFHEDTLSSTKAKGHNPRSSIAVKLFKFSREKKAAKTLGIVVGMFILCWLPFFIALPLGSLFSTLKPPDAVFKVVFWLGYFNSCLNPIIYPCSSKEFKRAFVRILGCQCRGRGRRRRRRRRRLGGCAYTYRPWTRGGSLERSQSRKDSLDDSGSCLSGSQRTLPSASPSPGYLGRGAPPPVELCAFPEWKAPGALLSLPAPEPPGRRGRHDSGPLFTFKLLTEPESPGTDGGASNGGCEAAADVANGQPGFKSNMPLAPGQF
Sequence of Alpha 1D (P25100 whole entry): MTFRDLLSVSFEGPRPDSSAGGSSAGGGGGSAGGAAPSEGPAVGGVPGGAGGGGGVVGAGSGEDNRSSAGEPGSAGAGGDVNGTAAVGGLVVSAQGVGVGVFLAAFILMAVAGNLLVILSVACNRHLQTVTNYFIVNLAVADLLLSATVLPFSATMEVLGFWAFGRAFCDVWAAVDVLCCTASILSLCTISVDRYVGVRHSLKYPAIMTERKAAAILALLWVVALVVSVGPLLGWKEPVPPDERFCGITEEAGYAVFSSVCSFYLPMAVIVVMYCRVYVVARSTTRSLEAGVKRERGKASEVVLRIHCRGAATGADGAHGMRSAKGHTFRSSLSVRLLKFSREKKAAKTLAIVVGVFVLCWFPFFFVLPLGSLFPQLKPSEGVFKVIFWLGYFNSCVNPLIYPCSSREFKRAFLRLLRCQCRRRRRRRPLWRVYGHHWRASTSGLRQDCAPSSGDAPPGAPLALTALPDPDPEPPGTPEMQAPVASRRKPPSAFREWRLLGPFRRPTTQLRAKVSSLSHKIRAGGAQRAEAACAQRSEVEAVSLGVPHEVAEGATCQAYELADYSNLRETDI
Sequence of M3 (P20309 whole entry): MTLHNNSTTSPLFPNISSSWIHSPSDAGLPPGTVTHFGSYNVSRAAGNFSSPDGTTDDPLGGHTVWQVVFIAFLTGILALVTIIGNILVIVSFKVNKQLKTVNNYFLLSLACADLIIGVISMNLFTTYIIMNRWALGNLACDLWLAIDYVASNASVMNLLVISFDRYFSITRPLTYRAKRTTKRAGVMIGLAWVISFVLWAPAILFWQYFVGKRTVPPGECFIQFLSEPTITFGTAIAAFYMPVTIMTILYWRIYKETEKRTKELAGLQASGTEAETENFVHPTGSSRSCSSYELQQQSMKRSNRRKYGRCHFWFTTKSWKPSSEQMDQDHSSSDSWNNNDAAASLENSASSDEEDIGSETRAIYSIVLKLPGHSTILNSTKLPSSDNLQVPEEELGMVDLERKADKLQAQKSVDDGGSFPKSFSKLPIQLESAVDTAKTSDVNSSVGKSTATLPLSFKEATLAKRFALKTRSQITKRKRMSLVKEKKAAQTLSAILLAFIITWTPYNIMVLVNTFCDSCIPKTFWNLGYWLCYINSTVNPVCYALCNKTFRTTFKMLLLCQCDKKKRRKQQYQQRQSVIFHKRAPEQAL
Sequence of Alpha 2A (P08913 whole entry): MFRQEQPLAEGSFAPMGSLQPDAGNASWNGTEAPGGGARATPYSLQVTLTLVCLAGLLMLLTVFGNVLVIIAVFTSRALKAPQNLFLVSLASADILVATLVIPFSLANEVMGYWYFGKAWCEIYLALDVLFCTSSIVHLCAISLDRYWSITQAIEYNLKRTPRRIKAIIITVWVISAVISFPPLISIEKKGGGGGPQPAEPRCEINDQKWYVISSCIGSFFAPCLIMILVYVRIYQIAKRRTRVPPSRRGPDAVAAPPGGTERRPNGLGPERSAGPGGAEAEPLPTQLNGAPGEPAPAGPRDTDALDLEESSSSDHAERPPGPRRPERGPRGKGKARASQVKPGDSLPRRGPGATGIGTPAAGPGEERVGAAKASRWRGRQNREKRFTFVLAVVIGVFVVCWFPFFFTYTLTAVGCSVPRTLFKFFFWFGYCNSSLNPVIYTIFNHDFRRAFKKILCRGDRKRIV
Sequence of M4 (P08173 whole entry): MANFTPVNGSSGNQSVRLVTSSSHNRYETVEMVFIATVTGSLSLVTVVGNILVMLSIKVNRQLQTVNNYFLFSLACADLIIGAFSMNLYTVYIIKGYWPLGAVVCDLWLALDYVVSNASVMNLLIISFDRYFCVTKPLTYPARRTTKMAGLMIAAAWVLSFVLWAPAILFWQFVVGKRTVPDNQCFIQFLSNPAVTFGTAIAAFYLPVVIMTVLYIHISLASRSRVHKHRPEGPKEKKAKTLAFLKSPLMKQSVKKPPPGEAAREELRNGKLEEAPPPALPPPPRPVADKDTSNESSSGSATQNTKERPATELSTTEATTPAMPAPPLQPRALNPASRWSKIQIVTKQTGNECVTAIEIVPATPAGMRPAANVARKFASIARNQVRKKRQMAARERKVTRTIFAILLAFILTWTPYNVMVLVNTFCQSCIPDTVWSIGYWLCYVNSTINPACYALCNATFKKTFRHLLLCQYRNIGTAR
Sequence of M1 (P11229 whole entry): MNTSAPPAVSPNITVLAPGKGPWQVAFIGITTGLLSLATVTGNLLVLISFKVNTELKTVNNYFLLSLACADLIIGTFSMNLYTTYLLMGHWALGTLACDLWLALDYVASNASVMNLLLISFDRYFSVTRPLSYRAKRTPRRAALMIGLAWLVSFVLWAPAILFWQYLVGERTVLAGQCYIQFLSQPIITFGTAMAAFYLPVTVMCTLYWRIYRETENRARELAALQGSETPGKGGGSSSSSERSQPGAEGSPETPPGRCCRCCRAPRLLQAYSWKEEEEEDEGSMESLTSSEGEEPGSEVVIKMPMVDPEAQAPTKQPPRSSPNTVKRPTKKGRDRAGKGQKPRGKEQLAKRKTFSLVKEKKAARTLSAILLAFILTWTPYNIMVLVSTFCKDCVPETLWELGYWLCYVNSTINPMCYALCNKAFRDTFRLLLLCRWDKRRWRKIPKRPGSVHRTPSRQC
Sequence of Alpha 2B (P18089 whole entry): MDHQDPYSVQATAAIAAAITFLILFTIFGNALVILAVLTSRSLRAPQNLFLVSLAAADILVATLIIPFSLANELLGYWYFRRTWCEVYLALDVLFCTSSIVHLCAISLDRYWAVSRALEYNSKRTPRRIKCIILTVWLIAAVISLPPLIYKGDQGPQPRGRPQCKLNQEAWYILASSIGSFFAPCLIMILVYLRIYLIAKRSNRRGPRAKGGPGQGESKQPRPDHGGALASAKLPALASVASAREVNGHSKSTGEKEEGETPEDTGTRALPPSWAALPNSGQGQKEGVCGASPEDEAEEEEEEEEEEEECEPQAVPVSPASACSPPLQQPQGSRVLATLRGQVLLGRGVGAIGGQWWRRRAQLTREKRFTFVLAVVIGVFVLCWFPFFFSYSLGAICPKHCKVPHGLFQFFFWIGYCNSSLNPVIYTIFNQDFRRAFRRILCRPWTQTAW
Sequence of 5-HT2a (P28223 whole entry, species assumed): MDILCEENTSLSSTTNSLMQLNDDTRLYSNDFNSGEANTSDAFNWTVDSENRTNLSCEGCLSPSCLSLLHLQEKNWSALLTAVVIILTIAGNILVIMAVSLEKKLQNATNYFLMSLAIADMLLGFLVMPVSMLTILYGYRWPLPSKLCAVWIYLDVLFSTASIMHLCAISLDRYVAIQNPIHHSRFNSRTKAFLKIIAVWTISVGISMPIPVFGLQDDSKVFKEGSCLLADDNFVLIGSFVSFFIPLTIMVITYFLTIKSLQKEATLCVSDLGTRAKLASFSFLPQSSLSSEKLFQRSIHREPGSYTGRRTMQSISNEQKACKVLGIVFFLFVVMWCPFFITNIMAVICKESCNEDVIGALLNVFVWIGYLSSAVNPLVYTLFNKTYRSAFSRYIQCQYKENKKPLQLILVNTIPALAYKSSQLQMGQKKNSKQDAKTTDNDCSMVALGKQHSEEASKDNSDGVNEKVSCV
Sequence of D2 (P14416 whole entry): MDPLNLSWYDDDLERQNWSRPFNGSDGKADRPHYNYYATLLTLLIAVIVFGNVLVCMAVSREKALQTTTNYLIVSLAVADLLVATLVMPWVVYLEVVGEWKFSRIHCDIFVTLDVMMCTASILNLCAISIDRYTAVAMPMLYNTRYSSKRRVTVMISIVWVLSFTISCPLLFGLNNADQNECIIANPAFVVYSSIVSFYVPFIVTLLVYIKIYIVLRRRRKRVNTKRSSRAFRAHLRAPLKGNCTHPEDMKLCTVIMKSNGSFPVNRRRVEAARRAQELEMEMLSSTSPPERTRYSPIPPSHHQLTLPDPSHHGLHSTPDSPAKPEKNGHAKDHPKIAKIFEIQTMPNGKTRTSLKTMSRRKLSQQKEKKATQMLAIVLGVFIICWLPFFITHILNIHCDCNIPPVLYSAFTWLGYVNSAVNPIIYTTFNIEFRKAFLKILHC

In the case of `CN1CCN(CCN2c3ccccc3Cc3ccccc32)CC1` [LMD-00076], the Kd (5-HT2a) is reported as 0.249 µM, the “In vitro testing data, Alpha 1A (yes)” value (Alpha 1A) is reported as “yes” and the “In vitro testing data, Alpha 1D (yes)” value (Alpha 1D) is reported as “yes”. The “In vitro testing data, Alpha 2A (yes)” value (Alpha 2A) was “yes”, the Kd (D2) was 0.692 µM and the Kd (M3) was 0.702 µM. The Kd (M5) was 0.419 µM, the “In vitro testing data, 5-HT1a (yes / dash)” value (5-HT1a) was “yes” and the Kd (M4) was 1.1 µM. For the same compound, the “cortical acetylcholine (ACh) efflux” value [1] was “significant increase”, the Kd (5-HT7) was 1.14 µM and the “In vitro testing data, Alpha 2C (yes)” value (Alpha 2C) was “yes”. The “In vitro testing data, Alpha 1B (yes)” value (Alpha 1B) was “yes”, the Kd (M1) was 0.707 µM and the Kd (H1) was 0.185 µM. For the same compound, the Kd (M2) was 3.33 µM, the “pre-frontal cortex dopamine efflux on co-dosing with WAY 100635” value ([2]; 5-HT1A silent antagonist WAY 100635 co-dosed with LMD-00076 (FIG. 11, curve labeled control)) was “blocked” and the “pre-frontal cortex dopamine release” value ([2]; as a function of time following administration (FIG. 11, FIG. 14)) was “dose-dependent”. The Kd (5-HT6) was 0.652 µM, the “In vitro testing data, Alpha 2B (yes)” value (Alpha 2B) was “yes” and the “nucleus accumbens dopamine release” value [3] was “modest increase”. It also gave a Kd (5-HT2c) of 0.968 µM.
With `CCN1CCN(CCN2c3ccccc3Cc3ccccc32)CC1` [LMD-00060] the Kd (5-HT2a) was 0.349 µM, the “In vitro testing data, Alpha 1A (yes)” value (Alpha 1A) was “yes” and the “In vitro testing data, Alpha 1D (yes)” value (Alpha 1D) was “yes”. The “In vitro testing data, Alpha 2A (yes)” value (Alpha 2A) was “yes”, the Kd (D2) was 0.632 µM and the Kd (M3) was 2.49 µM. For the same compound, the Kd (M5) was 0.613 µM, the Kd (M4) was 1.91 µM and the Kd (5-HT7) was 1.06 µM. For the same compound, the “In vitro testing data, Alpha 2C (yes)” value (Alpha 2C) was “yes”, the “In vitro testing data, Alpha 1B (yes)” value (Alpha 1B) was “yes” and the Kd (M1) was 1.36 µM. The Kd (H1) was 0.255 µM, the Kd (M2) was > 10 µM and the Kd (5-HT6) was 1.52 µM. The “In vitro testing data, Alpha 2B (yes)” value (Alpha 2B) was “yes” and the Kd (5-HT2c) was 2.74 µM.
